Reference: patent US20250204541A1, “GAS PHASE TREATMENT OF PRODUCE” (priority 2022, published 2025)

Columns and labels:
Type in all cases: in vivo
[1] = system: Colletotrichum gloeosporioides (Cg); assay: Antifungal activity of vapor against Colletotrichum gloeosporioides in avocados; details: Example 9, vapor of 3 mL in a Petri dish for 72 hours, 7 days of incubation
Protocol: Example 7. The antifungal activity of AITC and DADS vapor against Colletotrichum gloeosporioides (Cg) was tested in avocados. All test pieces were wounded by removing the stem and infected by dispensing 1000 Cg spores suspended in 10 μL of water into the wound. The test groups consisted of avocados that were: untreated and uninfected; untreated and infected; treated by dipping in a solution of 0.1 g/L of prochloraz; exposed to the vapor of 3 mL of AITC disposed in a Petri dish; and exposed to the vapor of 3 mL of DADS disposed in a Petri dish. FIG. 9 quantifies the infection results. AITC vapor reduced the incidence of Cg mold by 97% compared to the untreated test group and 70% compared to the prochloraz treated test group. DADS vapor reduced the incidence of Cg mold by 60% compared to the untreated test group.
Example 8. The antifungal activity of a range of DADS vapor exposure times was tested against Cg in avocados. All test pieces were wounded by removing the stem and infected by dispensing 1000 Cg spores suspended in 10 μL of water into the wound. The test groups consisted of avocados that were: infected and untreated; and exposed to the vapor of 3 mL of DADS in a Petri dish for 24 hours, 48 hours, and 72 hours. FIG. 10 quantifies the infection results. Test group exposed to DADS vapor at all exposure times reduced the incidence of Cg mold compared to the untreated test group. A 24 hour DADS exposure reduced the incidence of Cg mold by 8%. A 48 hour DADS exposure reduced the incidence of Cg mold by 25%. A 72 hour DADS exposure reduced the incidence of Cg mold by 57%.
Example 9. The antifungal activity of a range of AITC and carvacrol vapor exposure times was tested against Cg in avocados. To measure the effect of the various treatments on ripening, durometer shore was taken after 7 days of incubation at ambient temperature and high humidity. All samples were wounded by removing the stem and infected by dispensing 1000 Cg spores suspended in 10 μL of water in the wound. The test groups consisted of avocados that were: infected and left untreated on the benchtop; infected and left untreated under a fume hood; exposed to the vapor of 3 mL of AITC in a Petri dish for 24 hours, 48 hours, and 72 hours; and exposed to the vapor of 3 mL of carvacrol in a Petri dish for 72 hours. FIG. 11 quantifies the infection results. […] All exposure times to AITC vapor reduced the incidence of Cg mold compared to the untreated samples. A 24 hour AITC exposure reduced the incidence of Cg mold by 90%. A 48 hour AITC exposure reduced the incidence of Cg mold by 97%. A 72 hour AITC exposure reduced the incidence of Cg mold by 83%. […]
Example 21. The antifungal activity of avocados exposed to AITC vapor and prochloraz was tested against Cg in avocados. To measure the effect of the various treatments on ripening, durometer shore was taken after 5 days of incubation at ambient temperature (about 20° C. to about 25° C.) and high humidity (about 88% relative humidity to about 93% relative humidity). All samples were wounded by removing the stem and infected by dispensing 1000 Cg spores suspended in 10 μL of water in the wound. Exposure to vapor was done by placing the avocados in an airtight container, dispensing AITC onto Whatman filter paper discs, suspending the discs in front of a battery-powered fan, closing the container and incubating the avocados for 30 minutes. After vapor exposure, the avocados were left at ambient temperature, high humidity, and assessed for Cg mold on day 5. Treatment groups consisted of avocados that were: exposed for 30 minutes to the vapor of 125 μL of AITC disposed on a filter paper disc; dipped in a solution of 0.1 g/L of prochloraz and placed to dry on a rack in front of a fan for 30 min; infected and left untreated; and uninfected and untreated. […] To prepare the 0.1 g/L of prochloraz, 10 mg of prochloraz was mixed with 10 mL of ethanol and 90 mL of water. […] A 24 hour AITC exposure reduced the incidence of Cg mold by 90%. […]

[2] = system: Penicillium digitatum (Pd); assay: Antifungal activity of vapor against Penicillium digitatum in wounded, infected mandarins; details: vapor of 62.5 μL AITC and/or 125 μL of all other compounds for 30 minutes, assessed after 6 days
avocados = assay: Durometer shore (ripening/firmness) of treated avocados; details: Example 21; Cg-infected avocados; after 5 days; AITC 125 μL vapor 30 minutes, prochloraz 0.1 g/L dip
Protocol: Example 9. The antifungal activity of a range of AITC and carvacrol vapor exposure times was tested against Cg in avocados. To measure the effect of the various treatments on ripening, durometer shore was taken after 7 days of incubation at ambient temperature and high humidity. All samples were wounded by removing the stem and infected by dispensing 1000 Cg spores suspended in 10 μL of water in the wound. The test groups consisted of avocados that were: infected and left untreated on the benchtop; infected and left untreated under a fume hood; exposed to the vapor of 3 mL of AITC in a Petri dish for 24 hours, 48 hours, and 72 hours; and exposed to the vapor of 3 mL of carvacrol in a Petri dish for 72 hours. FIG. 11 quantifies the infection results. […] All exposure times to AITC vapor reduced the incidence of Cg mold compared to the untreated samples. A 24 hour AITC exposure reduced the incidence of Cg mold by 90%. A 48 hour AITC exposure reduced the incidence of Cg mold by 97%. A 72 hour AITC exposure reduced the incidence of Cg mold by 83%.
Example 10. The antifungal activity of a range of AITC vapor exposure times were tested against Cg in avocados. To measure the effect of the various treatments on ripening, durometer shore was taken after 6 days of incubation at ambient temperature and high humidity. All samples were wounded by removing the stem and infected by dispensing 1000 Cg spores suspended in 10 μL of water in each wound. The test groups consisted of avocados that were: infected and left untreated on the benchtop; infected and left untreated in a fume hood; exposed to the vapor of 3 mL of AITC in a Petri dish for 24 hours, 48 hours, and 72 hours. FIG. 13 quantifies the infection results. […] All exposure times to AITC vapor reduced the incidence of Cg mold compared to the untreated samples.
Example 21. The antifungal activity of avocados exposed to AITC vapor and prochloraz was tested against Cg in avocados. To measure the effect of the various treatments on ripening, durometer shore was taken after 5 days of incubation at ambient temperature (about 20° C. to about 25° C.) and high humidity (about 88% relative humidity to about 93% relative humidity). All samples were wounded by removing the stem and infected by dispensing 1000 Cg spores suspended in 10 μL of water in the wound. Exposure to vapor was done by placing the avocados in an airtight container, dispensing AITC onto Whatman filter paper discs, suspending the discs in front of a battery-powered fan, closing the container and incubating the avocados for 30 minutes. After vapor exposure, the avocados were left at ambient temperature, high humidity, and assessed for Cg mold on day 5. Treatment groups consisted of avocados that were: exposed for 30 minutes to the vapor of 125 μL of AITC disposed on a filter paper disc; dipped in a solution of 0.1 g/L of prochloraz and placed to dry on a rack in front of a fan for 30 min; infected and left untreated; and uninfected and untreated. […] To prepare the 0.1 g/L of prochloraz, 10 mg of prochloraz was mixed with 10 mL of ethanol and 90 mL of water. […] A 24 hour AITC exposure reduced the incidence of Cg mold by 90%. […] The mean shore value for the untreated avocados was 28.8 (standard deviation (SD)=10.8). The mean shore value for the infected avocados was 47.3 (SD=11.8). The mean shore value of the positive control, prochloraz treated avocados was 44.3 (SD=14.7). The mean shore value of the AITC treated avocados was 61.1 (SD=10.5).
Durometer Shore Measurement: A Fruit Hardness Tester—HPE III Fff w/Sphere Ø 5.0 mm Test Anvil is used for the measurements. The Operating Procedure is as follows: • 1) At room temperature and 1 atm pressure, switch on the measuring device and press the hull or sleeve against the specimen so that the contact surface of the pressure plate rests on the fruit. […]

Cc1ccc(C(C)C)cc1O [carvacrol]
reduction of the incidence of Cg mold [1]: did not reduce the incidence of Cg mold

C=CCc1ccc(O)c(OC)c1 [eugenol]
performance against Pd compared with untreated samples [2]: performed better than the untreated samples

CCCN(CCOc1c(Cl)cc(Cl)cc1Cl)C(=O)n1ccnc1 [prochloraz, reference compound]
mean shore value (avocados): 44.3 (SD=14.7) shore
